Experimental data from the supplement of paper PMC5908809.

Experiments:
[1] = test system: normal NK cells expanded with K562-aAPC; test: percent inhibition of viability; higher = more inhibition; details: 72 h, IL-2 2.5 ng/mL
Procedure: (§1)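 Drug sensitivity and resistance testing on K562-aAPC-expanded normal NK cells: 5 concentrations (10-fold steps over a 10,000-fold range), 72 h at 37 °C, viability by CellTiter-Glo normalised to DMSO and benzethonium chloride controls; DSS from the fitted curve.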

IMC-1 (IL-2 20 ng/mL) [2] = test: as above; details: 72 h
NK-YS (IL-2 2.5 ng/mL) [3] = test: as above; details: 72 h
[4] = test system: normal primary NK cells, pool 1 (3 donors), resting (IL-2 0 ng/mL); test: as above; details: 72 h
[5] = test system: normal primary NK cells, pool 1 (3 donors) (IL-2 2.5 ng/mL); test: as above; details: 72 h
KAI3 (IL-2 2.5 ng/mL) [6] = test: as above; details: 72 h
SNK-6 (IL-2 2.5 ng/mL) [7] = test: as above; details: 72 h
NK-92 (IL-2 2.5 ng/mL) [8] = test: as above; details: 72 h
[9] = test system: normal primary NK cells, pool 2 (3 donors) (IL-2 2.5 ng/mL); test: as above; details: 72 h
DERL-7 (IL-2 2.5 ng/mL) [10] = test: as above; details: 72 h
YT (IL-2 2.5 ng/mL) [11] = test: as above; details: 72 h
KHYG-1 (IL-2 2.5 ng/mL) [12] = test: as above; details: 72 h
[13] = test system: normal primary NK cells, pool 3 (3 donors) (IL-2 2.5 ng/mL); test: as above; details: 72 h
NKL (IL-2 2.5 ng/mL) [14] = test: as above; details: 72 h
IMC-1 (IL-2 20 ng/mL) [15] = test: drug sensitivity score (DSS) (DSS units); higher = more sensitive; extreme values may be limits of the assay; details: 72 h
NK-YS (IL-2 2.5 ng/mL) [16] = test: as above; details: 72 h
[17] = test system: normal primary NK cells, pool 1 (3 donors), resting (IL-2 0 ng/mL); test: as above; details: 72 h
[18] = test system: normal primary NK cells, pool 1 (3 donors) (IL-2 2.5 ng/mL); test: as above; details: 72 h
KAI3 (IL-2 2.5 ng/mL) [19] = test: as above; details: 72 h
SNK-6 (IL-2 2.5 ng/mL) [20] = test: as above; details: 72 h
NK-92 (IL-2 2.5 ng/mL) [21] = test: as above; details: 72 h
[22] = test system: normal primary NK cells, pool 2 (3 donors) (IL-2 2.5 ng/mL); test: as above; details: 72 h
DERL-7 (IL-2 2.5 ng/mL) [23] = test: as above; details: 72 h
YT (IL-2 2.5 ng/mL) [24] = test: as above; details: 72 h
KHYG-1 (IL-2 2.5 ng/mL) [25] = test: as above; details: 72 h
[26] = test system: normal primary NK cells, pool 3 (3 donors) (IL-2 2.5 ng/mL); test: as above; details: 72 h
NKL (IL-2 2.5 ng/mL) [27] = test: as above; details: 72 h
[28] = test system: normal NK cells expanded with K562-aAPC; test: as above; details: 72 h; IL-2 2.5 ng/mL
Procedure: as §1

Cc1c(NC(=O)OC[C@@H]2COCCN2)cn2ncnc(Nc3ccc4c(cnn4Cc4cccc(F)c4)c3)c12 (max concentration tested 10000 nM)
percent inhibition of viability [%]
Details	1 nM	10 nM	100 nM	1000 nM	10000 nM
DERL-7 (IL-2 2.5 ng/mL) [10]	-2.53	-0.41	-0.2	2.93	52.5
IMC-1 (IL-2 20 ng/mL) [2]	-5.26	-0.97	0.8	4.51	43.6
KAI3 (IL-2 2.5 ng/mL) [6]	1.51	4.45	5.56	-0.23	65.3
KHYG-1 (IL-2 2.5 ng/mL) [12]	4.55	7.44	7.32	8.8	77.5
NK-92 (IL-2 2.5 ng/mL) [8]	-5.71	-0.55	7.56	7.66	105
NK-YS (IL-2 2.5 ng/mL) [3]	1.47	0.48	3.03	2.38	38.8
NKL (IL-2 2.5 ng/mL) [14]	-10.7	1.23	-8.56	0.45	55.9
SNK-6 (IL-2 2.5 ng/mL) [7]	-6.28	-7.55	-9.76	-27.8	33.1
YT (IL-2 2.5 ng/mL) [11]	2.59	1.59	4.74	2.33	47.5
[1]	6.16	1.61	-2.01	5.74	30.1
[4]	4.93	-4.06	4.13	-12.6	58.4
[5]	1.48	-6.08	-9.4	-15	34.3
[9]	-13	-2.17	-2.11	0.64	57.2
[13]	-5.86	2.09	3.41	-2.09	44

Details	drug sensitivity score
DERL-7 (IL-2 2.5 ng/mL) [23]	3.21
IMC-1 (IL-2 20 ng/mL) [15]	2.97
KAI3 (IL-2 2.5 ng/mL) [19]	3.56
KHYG-1 (IL-2 2.5 ng/mL) [25]	5.75
NK-92 (IL-2 2.5 ng/mL) [21]	7.04
NK-YS (IL-2 2.5 ng/mL) [16]	2.25
NKL (IL-2 2.5 ng/mL) [27]	3.06
SNK-6 (IL-2 2.5 ng/mL) [20]	0.86
YT (IL-2 2.5 ng/mL) [24]	2.8
[17]	2.48
[18]	1.06
[22]	3.16
[26]	2.07
[28]	2.22

O=C1c2c(O)ccc(O)c2C(=O)c2c(NCCNCCO)ccc(NCCNCCO)c21 [Mitoxantrone] (max concentration tested 1000 nM)
percent inhibition of viability [%]
Details	0.1 nM	1 nM	10 nM	100 nM	1000 nM
DERL-7 (IL-2 2.5 ng/mL) [10]	-0.69	-3.99	7.25	45.4	81.1
IMC-1 (IL-2 20 ng/mL) [2]	-4.49	-5.12	2.6	19.3	92.1
KAI3 (IL-2 2.5 ng/mL) [6]	-18.6	-16.5	-1.68	41.7	74.6
KHYG-1 (IL-2 2.5 ng/mL) [12]	-1.32	3.99	7.39	17.7	72.5
NK-92 (IL-2 2.5 ng/mL) [8]	-10.5	-26.1	-3.86	11.4	45.4
NK-YS (IL-2 2.5 ng/mL) [3]	-6.35	-2.16	9.79	37.1	85.1
NKL (IL-2 2.5 ng/mL) [14]	-8.85	3.32	12	87	107
SNK-6 (IL-2 2.5 ng/mL) [7]	15	22.1	31.1	20.5	73.1
YT (IL-2 2.5 ng/mL) [11]	-1.6	4.64	3.75	-0.47	32.4
[1]	1.76	1.15	1.38	19	62
[4]	-14	-28.2	-16.5	24.1	91.4
[5]	1.11	-8.14	0.77	-0.51	58.9
[9]	-14.3	-3.15	3.94	9.38	53.6
[13]	-18.6	-1.63	-2.35	-0.69	45.1

Details	drug sensitivity score
DERL-7 (IL-2 2.5 ng/mL) [23]	10
IMC-1 (IL-2 20 ng/mL) [15]	8.2
KAI3 (IL-2 2.5 ng/mL) [19]	9.23
KHYG-1 (IL-2 2.5 ng/mL) [25]	6.72
NK-92 (IL-2 2.5 ng/mL) [21]	4.12
NK-YS (IL-2 2.5 ng/mL) [16]	8.97
NKL (IL-2 2.5 ng/mL) [27]	17.5
SNK-6 (IL-2 2.5 ng/mL) [20]	12.2
YT (IL-2 2.5 ng/mL) [24]	1.43
[17]	8.71
[18]	3.14
[22]	4.44
[26]	2.25
[28]	6.19

O=C(c1cccc(Cl)c1F)N1CCN(Cc2cccc(Nc3nccs3)n2)CC1 [MK-8745] (max concentration tested 2500 nM)
percent inhibition of viability [%]
Details	0.25 nM	2.5 nM	25 nM	250 nM	2500 nM
DERL-7 (IL-2 2.5 ng/mL) [10]	-8.45	2.62	1.62	22	83.1
IMC-1 (IL-2 20 ng/mL) [2]	-1.25	-4.64	-0.96	2.91	66.8
KAI3 (IL-2 2.5 ng/mL) [6]	-2.71	2.86	-1.01	18.3	36.5
KHYG-1 (IL-2 2.5 ng/mL) [12]	-1.65	-5.36	-0.69	6.09	44.4
NK-92 (IL-2 2.5 ng/mL) [8]	-12.1	-7.81	-0.68	8.86	26.2
NK-YS (IL-2 2.5 ng/mL) [3]	-0.85	-3.89	-0.06	38.4	61.3
NKL (IL-2 2.5 ng/mL) [14]	-14.5	-12.8	-23.9	17.2	40.3
SNK-6 (IL-2 2.5 ng/mL) [7]	-0.59	0.91	-4.8	47.9	76.6
YT (IL-2 2.5 ng/mL) [11]	-0.09	-1.63	-2.07	7.04	49.4
[1]	-2.18	-4.25	-9.82	1.43	48.4
[4]	-8.12	-10.6	-11.2	9.28	-1.15
[5]	-9.49	-9.51	-7.79	0.54	-4.11
[9]	-9.44	-9.06	-12.7	-6.66	-1.81
[13]	-9.39	-6.67	-11.6	-9.93	-1.62

Details	drug sensitivity score
DERL-7 (IL-2 2.5 ng/mL) [23]	7.96
IMC-1 (IL-2 20 ng/mL) [15]	4.06
KAI3 (IL-2 2.5 ng/mL) [19]	4.06
KHYG-1 (IL-2 2.5 ng/mL) [25]	3.3
NK-92 (IL-2 2.5 ng/mL) [21]	2.22
NK-YS (IL-2 2.5 ng/mL) [16]	7.96
NKL (IL-2 2.5 ng/mL) [27]	4.29
SNK-6 (IL-2 2.5 ng/mL) [20]	9.92
YT (IL-2 2.5 ng/mL) [24]	3.79
[17]	0
[18]	0
[22]	0.89
[26]	0.89
[28]	2.71
